# In patent US8916575B2, “Quinazoline derivatives for the treatment of viral infections and further diseases” (Janssen R&D Ireland, priority 2011, dated 2014):
# Target: T1, human TLR8 (Homo sapiens, UniProt Q9NR97)
# T1 construct: expressed in transfected cells; host or cells: HEK293
# T1 sequence (Q9NR97 27-1041): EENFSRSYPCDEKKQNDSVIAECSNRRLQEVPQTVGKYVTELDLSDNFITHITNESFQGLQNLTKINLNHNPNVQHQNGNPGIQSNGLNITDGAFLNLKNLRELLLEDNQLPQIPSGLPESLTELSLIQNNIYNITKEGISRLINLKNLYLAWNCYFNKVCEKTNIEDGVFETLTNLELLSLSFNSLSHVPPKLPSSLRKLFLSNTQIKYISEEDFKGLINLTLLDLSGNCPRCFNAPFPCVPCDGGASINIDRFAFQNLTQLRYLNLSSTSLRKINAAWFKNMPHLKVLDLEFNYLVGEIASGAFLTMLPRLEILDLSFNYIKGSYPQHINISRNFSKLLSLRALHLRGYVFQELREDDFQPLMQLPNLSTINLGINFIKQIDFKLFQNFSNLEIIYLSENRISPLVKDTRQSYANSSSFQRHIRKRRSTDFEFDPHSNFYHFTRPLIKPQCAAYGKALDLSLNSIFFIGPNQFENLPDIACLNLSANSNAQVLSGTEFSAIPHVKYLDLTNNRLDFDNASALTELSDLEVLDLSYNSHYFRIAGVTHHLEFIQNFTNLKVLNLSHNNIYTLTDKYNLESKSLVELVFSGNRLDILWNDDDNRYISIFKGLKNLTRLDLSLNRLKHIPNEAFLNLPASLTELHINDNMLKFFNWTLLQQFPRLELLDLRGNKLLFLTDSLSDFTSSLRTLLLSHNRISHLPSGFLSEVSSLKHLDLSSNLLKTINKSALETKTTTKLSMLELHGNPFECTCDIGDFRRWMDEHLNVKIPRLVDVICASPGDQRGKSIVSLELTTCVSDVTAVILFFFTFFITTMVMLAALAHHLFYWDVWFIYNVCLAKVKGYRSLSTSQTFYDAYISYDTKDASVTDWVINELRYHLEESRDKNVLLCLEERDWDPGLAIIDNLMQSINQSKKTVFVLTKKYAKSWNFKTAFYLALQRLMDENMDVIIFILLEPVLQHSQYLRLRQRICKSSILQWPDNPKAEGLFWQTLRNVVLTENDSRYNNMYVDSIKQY
# Experiment: TLR8 wild type NFκB-luc cellular reporter assay
# Format: cell-based
# Design: unit not given here
# Conditions: HEK293 NFκB-luc reporter, 6 hours incubation; second part of table
# Protocol: The ability of compounds to activate human TLR7 and/or TLR8 was assessed in a cellular reporter assay using HEK293 cells transiently transfected with a TLR7 or TLR8 expression vector and NFκB-luc reporter construct. In one instance the TLR expression construct expresses the respective wild type sequence or a mutant sequence comprising a deletion in the second leucine-rich repeat of the TLR.
# Briefly, HEK293 cells were grown in culture medium (DMEM supplemented with 10% FCS and 2 mM Glutamine). For transfection of cells in 10 cm dishes, cells were detached with Trypsin-EDTA, transfected with a mix of CMV-TLR7 or TLR8 plasmid (750 ng), NFκB-luc plasmid (375 ng) and a transfection reagent and incubated 24 hours at 37° C. in a humidified 5% CO2 atmosphere. Transfected cells were then detached with Trypsin-EDTA, washed in PBS and resuspended in medium to a density of 1.67×10^5 cells/mL. Thirty microliters of cells were then dispensed into each well in 384-well plates, where 10 μL of compound in 4% DMSO was already present. Following 6 hours incubation at 37° C., 5% CO2, the luciferase activity was determined by adding 15 μl of Steady Lite Plus substrate (Perkin Elmer) to each well and readout performed on a ViewLux ultraHTS microplate imager (Perkin Elmer). Dose response curves were generated from measurements performed in quadruplicates. Lowest effective concentrations (LEC) values, defined as the concentration that induces an effect which is at least two fold above the standard deviation of the assay, were determined for each compound.
row,SMILES,TLR8-wt (LEC)
1,CCCCNc1nc(N)nc2cccc(OC)c12 [Compound 9],0.13
2,CCC[C@@H](CO)Nc1nc(N)nc2cccc(-c3ccccc3)c12 [Compound 10],>25
3,CCCCNc1nc(N)nc2cccc(OCCOC)c12 [Compound 11],0.17
4,CCCCCNc1nc(N)nc2ccc(Br)cc12 [Compound 13],0.30
5,CCCCNc1nc(N)nc2cc(C(=O)OC)ccc12 [Compound 17],1.66
6,CCCCNc1nc(N)nc2cc(CO)ccc12 [Compound 18],0.13
7,CCCCNc1nc(N)nc2ccc(-n3cnc(C)c3)cc12 [Compound 21],2.55
8,CCCCNc1nc(N)nc2ccc(CO)cc12 [Compound 24],0.22
9,CCC[C@@H](CCO)Nc1nc(N)nc2ccc(CC)cc12 [Compound 25],0.45
10,CCC[C@@H](CCO)Nc1nc(N)nc2ccc(C(C)C)cc12 [Compound 26],1.97
11,CCC[C@@H](CCO)Nc1nc(N)nc2ccc(Oc3ccc(C(F)(F)F)cc3Cl)cc12 [Compound 27],>25
12,CCCCNc1nc(N)nc2cc(Cl)c3c(c12)OCCO3 [Compound 28],0.88
13,CCC[C@@H](CCO)Nc1nc(N)nc2ccc(Oc3ccc(C(F)(F)F)cc3)cc12 [Compound 29],>25
14,C#CCOc1cccc2nc(N)nc(NCCCC)c12 [Compound 30],0.10
15,CCCCNc1nc(N)nc2cccc(OC(C)C)c12 [Compound 31],0.24
16,CCCCNc1nc(N)nc2cccc(CCc3ccccc3)c12 [Compound 32],0.47
17,CCC[C@@H](CO)Nc1nc(N)nc2cc(CO)ccc12 [Compound 33],0.15
18,CCC[C@@H](CO)Nc1nc(N)nc2ccc(CO)cc12 [Compound 34],0.27
19,CCCCNc1nc(N)nc2ccc(Oc3ccc(C(F)(F)F)cc3Cl)cc12 [Compound 35],>25
20,CCCCNc1nc(N)nc2cccc(C)c12 [Compound 36],0.26
21,CCCCNc1nc(N)nc2c(F)cccc12 [Compound 37],0.25
22,CCCCNc1nc(N)nc2ccc(F)cc12 [Compound 38],0.10
23,CCCCNc1nc(N)nc2cc(OC)ccc12 [Compound 39],0.31
24,CCCCNc1nc(N)nc2ccc(OC)cc12 [Compound 40],1.83

row,SMILES,TLR8-wt (LEC)
1,CCCCNc1nc(N)nc2cccc(Cl)c12 [Compound 41],0.13
2,CCCCNc1nc(N)nc2cc(F)c(F)cc12 [Compound 42],0.14
3,CCC[C@@H](CO)Nc1nc(N)nc2c(C)cccc12 [Compound 43],0.12
4,CCC[C@@H](CO)Nc1nc(N)nc2cc(C)ccc12 [Compound 44],0.03
5,CCC[C@@H](CO)Nc1nc(N)nc2ccc(C)cc12 [Compound 45],0.03
6,CCC[C@@H](CO)Nc1nc(N)nc2cccc(C)c12 [Compound 46],0.04
7,CCC[C@@H](CO)Nc1nc(N)nc2c(F)cccc12 [Compound 47],0.03
8,CCC[C@@H](CO)Nc1nc(N)nc2cc(F)ccc12 [Compound 48],0.01
9,CCC[C@@H](CO)Nc1nc(N)nc2ccc(F)cc12 [Compound 49],0.03
10,CCC[C@@H](CO)Nc1nc(N)nc2cccc(F)c12 [Compound 50],0.00
11,CCCC[C@@H](CO)Nc1nc(N)nc2ccc(C)cc12 [Compound 51],0.04
12,CCCC[C@@H](CO)Nc1nc(N)nc2cccc(C)c12 [Compound 52],0.03
13,CCC[C@@H](CCO)Nc1nc(N)nc2cc(C)ccc12 [Compound 53],0.05
14,CCC[C@@H](CCO)Nc1nc(N)nc2ccc(C)cc12 [Compound 54],0.43
15,CCC[C@@H](CO)Nc1nc(N)nc2cc(OC)ccc12 [Compound 56],0.04
16,CCC[C@@H](CO)Nc1nc(N)nc2ccc(OC)cc12 [Compound 57],0.53
17,CCC[C@@H](CO)Nc1nc(N)nc2cccc(OC)c12 [Compound 58],0.03
18,CCCC[C@@H](CO)Nc1nc(N)nc2c(F)cccc12 [Compound 59],0.04
19,CCCC[C@@H](CO)Nc1nc(N)nc2cc(F)ccc12 [Compound 60],0.01
20,CCCC[C@@H](CO)Nc1nc(N)nc2ccc(F)cc12 [Compound 61],0.05
21,CCCC[C@@H](CO)Nc1nc(N)nc2cccc(F)c12 [Compound 62],0.01
22,CCC[C@@H](CCO)Nc1nc(N)nc2c(F)cccc12 [Compound 63],0.15
23,CCC[C@@H](CCO)Nc1nc(N)nc2cc(F)ccc12 [Compound 64],0.03
24,CCC[C@@H](CCO)Nc1nc(N)nc2ccc(F)cc12 [Compound 65],0.44

row,SMILES,TLR8-wt (LEC)
1,CCC[C@@H](CCO)Nc1nc(N)nc2cccc(F)c12 [Compound 66],0.02
2,CC[C@H](C)[C@@H](CO)Nc1nc(N)nc2c(F)cccc12 [Compound 67],0.11
3,CC[C@H](C)[C@@H](CO)Nc1nc(N)nc2ccc(F)cc12 [Compound 68],0.33
4,CCC[C@@H](CO)Nc1nc(N)nc2c(Cl)cccc12 [Compound 69],0.38
5,CCC[C@@H](CO)Nc1nc(N)nc2cc(Cl)ccc12 [Compound 70],0.01
6,CCC[C@@H](CO)Nc1nc(N)nc2cccc(Cl)c12 [Compound 71],0.01
7,CCC[C@@H](CO)Nc1nc(N)nc2cc(F)c(F)cc12 [Compound 72],0.02
8,CCCC[C@@H](CCO)Nc1nc(N)nc2cc(C)ccc12 [Compound 73],0.06
9,CCCC[C@@H](CCO)Nc1nc(N)nc2ccc(C)cc12 [Compound 74],0.25
10,CCCC[C@@H](CCO)Nc1nc(N)nc2cccc(C)c12 [Compound 75],0.06
11,CCCC[C@@H](CO)Nc1nc(N)nc2cc(OC)ccc12 [Compound 76],0.04
12,CCCC[C@@H](CO)Nc1nc(N)nc2ccc(OC)cc12 [Compound 77],0.62
13,CCC[C@@H](CCO)Nc1nc(N)nc2cc(OC)ccc12 [Compound 78],0.13
14,CCC[C@@H](CCO)Nc1nc(N)nc2ccc(OC)cc12 [Compound 79],2.97
15,CC[C@H](C)[C@@H](CO)Nc1nc(N)nc2ccc(OC)cc12 [Compound 80],4.10
16,CCCC[C@@H](CCO)Nc1nc(N)nc2c(F)cccc12 [Compound 81],0.16
17,CCCC[C@@H](CCO)Nc1nc(N)nc2cc(F)ccc12 [Compound 82],0.03
18,CCCC[C@@H](CCO)Nc1nc(N)nc2ccc(F)cc12 [Compound 83],0.42
19,CCCC[C@@H](CCO)Nc1nc(N)nc2cccc(F)c12 [Compound 84],0.10
20,CCCCNc1nc(N)nc2ccc(Br)cc12 [Compound 85],0.10
21,CCC[C@@H](CO)Nc1nc(N)nc2cc(C(=O)OC)ccc12 [Compound 86],0.22
22,CCCC[C@@H](CCO)Nc1nc(N)nc2cc(OC)ccc12 [Compound 87],0.16
23,CCCC[C@@H](CCO)Nc1nc(N)nc2ccc(OC)cc12 [Compound 88],2.81
24,CCCCNc1nc(N)nc2cc(OC)c(OCc3ccccc3)cc12 [Compound 89],2.22
